Positions count from the first letter of the chain named. Entries after “also recorded” stand apart in the source; their conditions may differ. Where two headings read alike, the source gives them in different places. Residues, ends and D or L forms follow the SMILES beside them. *: point of attachment. 5FAM = O=C1OC2(c3ccc(O)cc3Oc3cc(O)ccc32)c2ccc(C(=O)*)cc21
Columns and labels:
[1] = biological target: T1, ZDHHC3 (Homo sapiens, UniProt Q9NYG2); assay: STAT3 fatty acylation induced by ZDHHC3 in HEK293T cells (Alk14 labeling, in-gel fluorescence); type: cell-based; settings: for effect on ZDHHC3-catalyzed STAT3 acylation level: 25 μM, 6-hour treatment
T1 construct: HA; expressed in transfected cells; host or cells: HEK 293T cells
T1 sequence (Q9NYG2 1-299): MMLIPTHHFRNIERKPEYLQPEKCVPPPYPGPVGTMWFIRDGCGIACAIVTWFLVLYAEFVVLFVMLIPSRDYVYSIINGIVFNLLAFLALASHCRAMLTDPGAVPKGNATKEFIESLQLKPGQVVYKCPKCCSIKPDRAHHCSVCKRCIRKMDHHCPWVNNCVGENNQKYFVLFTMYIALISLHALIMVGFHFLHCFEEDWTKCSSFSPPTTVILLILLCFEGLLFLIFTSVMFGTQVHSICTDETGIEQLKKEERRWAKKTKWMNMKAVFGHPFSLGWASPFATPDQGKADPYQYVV
Text: Next experiments also tested the four compounds for ZDHHC3 inhibition in HEK293T cells that over-express both ZDHHC3 and STAT3. […] Thus, the results from the Acyl-cLIP assay can be used to predict cellular responses.

[2] = biological target: T2, ZDHHC7 (Mus musculus, UniProt Q91WU6); assay: ZDHHC7 Acyl-cLIP assay (end-point method)
T2 sequence (Q91WU6 1-308): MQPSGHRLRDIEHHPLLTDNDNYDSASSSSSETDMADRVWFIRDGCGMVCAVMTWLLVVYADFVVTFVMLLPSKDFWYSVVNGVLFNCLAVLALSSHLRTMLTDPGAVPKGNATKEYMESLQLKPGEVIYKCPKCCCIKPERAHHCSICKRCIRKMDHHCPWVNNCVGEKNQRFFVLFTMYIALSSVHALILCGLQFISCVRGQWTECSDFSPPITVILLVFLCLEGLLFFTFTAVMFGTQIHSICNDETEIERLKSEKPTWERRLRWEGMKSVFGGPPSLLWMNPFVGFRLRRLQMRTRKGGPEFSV
Procedure: Because these inhibitors may form irreversible covalent bonds with ZDHHCs, the order of adding the reagents were changed and included a 30-minute pre-incubation time to permit the bond to form prior to the addition of the FAM peptide and palmitoyl-CoA to initiate the reaction.
n-Dodecyl β-D-maltoside (DDM, 1.3 mg) was dissolved in 1 mL of water by vigorous vortexing. Preparing for 19 samples, “Buffer A” was prepared as follows: In a 1.5 mL Eppendorf tube with the DDM solution (190 μL), MES buffer pH 6.5 (stock concentration 500 mM, 38 μL), TCEP (stock concentration 30 mM, 6.33 μL), and ZDHHC7 (stock concentration 6 μM, 19 μL) were added. For the same 19 samples, “Buffer B” was prepared as followed. In a 1.5 mL Eppendorf tube with the DDM solution (76 μL), palmitoyl-CoA (stock concentration 1.5 mM, 12.6 μL) and FAM-Kras4a substrate (stock concentration 0.5 mM, 19 μL) was added. To each well of a black 384 well plate (Corning 3575), 1 μL of inhibitor (concentration ranging from 93.75 μM to 6000 μM) was added. First, 13.3 μL of “Buffer A” was added to each well. After a 30-minute pre-incubation, 5.66 μL of “Buffer B” was added. The final concentration of the reaction mixture was 50 mM MES pH 6.4, 0.5 mM TCEP, 40 μM palmitoyl-CoA, 0.3 μM ZDHHC7, and 25 μM FAM-KRas4a substrate in 0.1% DDM solution. After 30 minutes, the reaction was quenched by adding 4 μL of 6 mM non-FAM KRas-4a substrate. The fluorescence anisotropy was measured by citation 5 with “8040561 Filter BLK ASBY GRN FP VSBL K” cube at excitation of 485/20 nm, emission of 528/20 nm, and normal read speed mode. The measurements were done in 3 replicates at each inhibitor concentration.

[3] = biological target: T3, ZDHHC3 (Mus musculus, UniProt Q8R173); assay: ZDHHC3 Acyl-cLIP assay (end-point method); type: biochemical; settings: for inhibition of ZDHHC3 compared with ZDHHC7 (Acyl-cLIP): comparison of Acyl-cLIP IC50 values
T3 construct: FLAG (C); His (C); made in house; host or cells: Sf9 insect cells (baculovirus)
T3 sequence (Q8R173 1-299): T1 sequence (Q9NYG2 1-299) with N11D, V25A, Y29F, V33A, T35A, I68V, V74A, G224A
Procedure: The DHHC3 IC50 value for 2-BP and MY-D-4 were approximately 250 and 50 μM, respectively (Table 1).
ZDHHC3 was assayed using the similar protocol at a final concentration of 0.6 μM.
The rest of the experiment was done identical to the ZDHHC7 assay.
(§1) Purification of ZDHHC enzymes.

[4] = biological target: T2, ZDHHC7; assay: ZDHHC7-myrGia PAT assay with [3H]palmitoyl-CoA; type: biochemical; design: myc (vector pblueBac4.5-myc3His10) (C); His (vector pblueBac4.5-myc3His10) (C); made in house; host or cells: Sf9 insect cells (baculovirus); settings: [3H]palmitoyl-CoA and myr-Gia substrate; 10 min pre-incubation at 30° C.
Procedure: To further evaluate the potency of the inhibitors, the four compounds were tested using ZDHHC7-catalyzed palmitoylation of myristoylated (myr) Gi protein a subunit (Gia) using an established in vitro assay with [^3H]palmitoyl-CoA. Myr-Gia was previously reported as a substrate for ZDHHC7 (R. Tsutsumi et al., Mol. Cell. Biol., 29, 435-447, 2009). ZDHHC7 and the inhibitors were pre-incubated at 30° C. for 10 min, followed by the addition of [^3H]pal-mitoyl-CoA and myr-Gia. The acylation reaction was allowed to proceed at 30° C. for 10 min, the reaction was quenched, and the proteins resolved by SDS-PAGE. The [^3H]-palmitoylated myrGia band was excised from the gel and the level of [^3H]palmitoylation was measured by scintillation counting. […] Additionally, MY-D-2 and MY-D-3 inhibited ZDHHC7 weaker than 2-BP.
as §1
ZDHHC7-myrGia PAT Assay. Rat Myr-Gia was generated by transforming C-terminally His-tagged Gia in JM101 competent cells containing the N-myristoyltransferase (NMT) plasmid. Following inoculation and induction of the bacterial cells, myr-Gia was purified from total cell lysates using Ni-NTA resin. […] The PAT reaction was then initiated by mixing the enzyme:inhibitor solution with [^3H]-palmitoyl CoA (1 μM) and myr-Gia (1 μM). The reaction was allowed to proceed for 10 min at 30° C. and then stopped with the addition of sample buffer containing 10 mM TCEP. Proteins were resolved on a Coomassie-stained gel, and the myr-Gia band was excised and dissolved in Soluene (Perkin-Elmer). The excised bands were heated at 37° C. overnight and then combined with Ultima Gold scintillation fluid (Perkin-Elmer). Radioactivity was measured by scintillation counting. IC50 values for the inhibitors were calculated by plotting the inhibition curves in GraphPad Prism.

[5] = biological target: T4, ZDHHC7 (Homo sapiens, UniProt Q9NXF8); assay: STAT3 fatty acylation induced by ZDHHC7 in HEK293T cells (Alk14 labeling, in-gel fluorescence); settings: for STAT3 fatty acylation (ZDHHC7): 50 μM inhibitor, 6-hour treatment; for in-cell inhibition of ZDHHC7 (overall): HEK293T cells, summary statement; for STAT3 acylation (ZDHHC7): 12- and 24-hour inhibitor treatment
T4 sequence (Q9NXF8 1-308): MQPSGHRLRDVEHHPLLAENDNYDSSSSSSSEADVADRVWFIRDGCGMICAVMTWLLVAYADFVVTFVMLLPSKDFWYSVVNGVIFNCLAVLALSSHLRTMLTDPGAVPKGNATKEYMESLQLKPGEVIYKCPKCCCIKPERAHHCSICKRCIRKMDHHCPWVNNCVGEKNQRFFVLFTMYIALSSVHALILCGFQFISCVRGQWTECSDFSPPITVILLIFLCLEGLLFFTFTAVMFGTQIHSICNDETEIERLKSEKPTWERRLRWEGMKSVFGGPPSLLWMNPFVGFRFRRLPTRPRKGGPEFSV
Procedure: Cells were treated with 50 μM of the inhibitors for the indicated hours and labeled with 50 μM of Alk-14 for 6 hours. […] Cells were treated with 25 μM of inhibitors for 16 hours and labeled with 50 μM of Alk-14 for 6 hours. Relative FL/Protein for both experiments was calculated by dividing fluorescence signal by the protein level from the corresponding “CBB” lane. The fatty acylation level of DMSO with Alk14 was set to 1.
Flag-tagged STAT3 and HA-tagged ZDHHC7 were expressed in HEK293T cells. The cells were incubated with the four inhibitors. During the last six hours of the incubation, 50 μM of Alk14 probe was added to metabolically label palmitoylated STAT3. After collecting and lysing the cells, STAT3 was immunoprecipitated and the levels of acylation were determined by in-gel fluorescence after click chemistry.
HEK 293T cells were transfected with STAT3-Flag and ZDHHC3-HA or ZDHHC7-HA for 36 h, and treated with 50 μM 2-BP, MY-D-2, MY-D-3, or MY-D-4 for the indicated time with 6 h Alk14 labeling (50 μM). Cells were collected and lysed in the 1% NP-40 lysis buffer (25 mM Tris-HCl pH 8.0, 10% glycerol, 150 mM NaCl, 1% Nonidet P-40) with protease inhibitor cocktail (P8340, Sigma). STAT3-Flag was purified by anti-Flag agarose beads and resuspended in 50 μL IP wash buffer (25 mM Tris-HCl pH 8.0, 150 mM NaCl, 0.2% Nonidet P-40). Click chemistry was done by adding a mixture of 3 μL of 2 mM TAMRA azide (47130, Lumiprobe), 3.6 μL of 10 mM tris[(1-benzyl-1H-1,2,3-triazol-4-yl)methyl]amine (TBTA) (T2993, TCI chemicals), 3 μL of 40 mM CuSO4, 3 μL of 40 mM tris(2-carboxyethyl)phosphine HCl (TCEP hydrochloride) (580560, Millipore) to each sample. The mixtures were mixed by vortex and incubated in dark at room temperature for 30 min. 20 μL of the 6× loading buffer was added into each reaction mixture and the mixture was boiled at 95° C. for 10 min to denature. The mixture was separated by SDS-PAGE gel. The gel was scanned by the Typhoon 7000 Variable Mode Imager (GE Healthcare Life Sciences) in the rhodamine channel to visualize the fatty acylation of STAT3 and was stained with Coomassie Brilliant Blue (B7920, Sigma) to check for protein loading. Relative FL/Protein quantification was done by ImageJ.

[6] = biological target: T2, ZDHHC7; assay: ZDHHC-HRas PAT assay, ZDHHC7; type: biochemical; design: myc (vector pblueBac4.5-myc3His10) (C); His (vector pblueBac4.5-myc3His10) (C); made in house; host or cells: Sf9 insect cells (baculovirus); settings: fixed inhibitor concentration of 1 μM; order MY-D-4, 2-BP, MY-D-2, MY-D-3
Procedure: (§2) The results of the Acyl-cLIP assay were also compared with a conventional assay using HRas protein. Next experiments screened at a fixed inhibitor concentration of 1 μM against ZDHHC3 and ZDHHC7 using [^3H]palmitoyl-CoA and HRas protein as substrates. The levels of [^3H]palmitoylated HRas were detected.
as §1
(§3) ZDHHC-HRas PAT Assay. His-HRas was purified from total cell lysates of baculovirus-infected Sf9 cells using Ni-NTA resin.

[7] = biological target: T3, ZDHHC3; assay: ZDHHC-HRas PAT assay, ZDHHC3; type: biochemical; settings: fixed inhibitor concentration of 1 μM; order MY-D-4, 2-BP, MY-D-2, MY-D-3
Procedure: as §2, §1, §3

[8] = biological target: T2, ZDHHC7; assay: Enzyme kinetics of ZDHHC7 on the FAM-KRas4a peptide by HPLC; type: biochemical; design: myc (vector pblueBac4.5-myc3His10) (C); His (vector pblueBac4.5-myc3His10) (C); made in house; host or cells: Sf9 insect cells (baculovirus); settings: ZDHHC7, 60 μM palmitoyl-CoA
Procedure: ZDHHC-catalyzed S-palmitoylation was detected by LC-MS. To facilitate detection by UV, two tryptophan residues were added to the C-terminus of the peptide. In a second peptide, the 5-FAM group was attached to permit detection in the acyl-cLIP assay.
In solutions containing 0.1% DMM, 50 mM MES pH 6.4, 0.5 mM TCEP, 60 μM palmitoyl-CoA, and 0.15 μM DHHC7, FAM-KRas peptide was added to final concentration ranging from 31.25 μM to 2000 μM. After 10 minutes of incubation, the reaction was quenched with 0.1% acetonitrile. After centrifuging at 17 000 g for 10 minutes, the supernatant was loaded to Shimadzu HPLC LC20 Ad with Kinetex 5u EVO C18 100 Å column (100 mm×4.60 mm, 5 μm) for UV detection at 260 nm. Using HPLC-grade water with 0.1% trifluoroacetic acid as Buffer A and HPLC-grade acetonitrile with 0.1% trifluoroacetic acid, at a constant rate of 0.5 mL/min, the linear gradient for elution was 0% Buffer B (0-2 min), 20% Buffer B (2-4 min), 40% Buffer B (4-17 min), 100% Buffer B (17-19 min), 100% Buffer B (19-24 min), 0% Buffer B (24-25 min), and 0% Buffer B (25-30 min). Product formed was quantified using the ratio of substrate and product peak areas. After the detection, Km and kcat values were measured by GraphPad Prism software.

[9] = IC50 (μM) ZDHHC7 (Acyl-cLIP), 30-minute pre-incubation with inhibitor, FAM-KRas4a peptide substrate
[10] = IC50 ZDHHC7 (Acyl-cLIP) without the pre-incubation, without pre-incubation
[11] = 30-minute pre-incubation, FAM-KRas4a peptide substrate

Q: What does the source list for `CCCCCCCCCCCCCCC(Br)C(=O)OC` [MY-D-2, methyl 2-bromohexadecanoate]?
A: effect on ZDHHC3-catalyzed STAT3 acylation level [1]: only slightly affected; IC50 [2, 9]: 38 µM; IC50 [2, 10]: 75 µM; IC50 (μM) ZDHHC3 (Acyl-cLIP) [3, 11]: No; IC50 [4]: 29 µM; STAT3 fatty acylation (ZDHHC7) ([5]; HEK293T): only slightly decreased; in-cell inhibition of ZDHHC7 (overall) [5]: only mild inhibition

Q: Which results are given for `CCCCCCCCCCCCCCC(Br)C(=O)SCCNC(C)=O` [MY-D-4, S-(2-acetamidoethyl) 2-bromohexadecanethioate]?
A: inhibition of ZDHHC3 in living cells (FIG. 4B) ([1]; 25 μM of inhibitors for 16 hours): inhibits; IC50 [2, 9]: 4.4 µM; IC50 [2, 10]: 6.3 µM; IC50 [3]: ~50 µM; inhibition of ZDHHC3 compared with ZDHHC7 (Acyl-cLIP) [3]: inhibited ZDHHC3 much less than ZDHHC7; IC50 [4]: 1.6 µM; IC50 [5]: 1 to 5 µM; STAT3 fatty acylation (ZDHHC7) ([5]; HEK293T): significantly reduced; STAT3 acylation (ZDHHC7) ([5]; HEK293T): completely eliminated; in-cell inhibition of ZDHHC7 (overall) [5]: slightly weaker than or similar potency to 2-BP; also recorded: inhibits; inhibition of ZDHHC7, levels of [3H]palmitoylated HRas [6]: strongest inhibition among the four compounds; inhibition of ZDHHC3, levels of [3H]palmitoylated HRas [7]: strongest inhibition among the four compounds

Q: How did the IC50 ([2]; read-out: IC50 (μM) ZDHHC7 (Acyl-cLIP), 30-minute pre-incubation with inhibitor, FAM-KRas4a peptide substrate) turn out when `CCCCCCCCCCCCCCC(Br)C(=O)O` (centres unmarked) [2-BP, 2-bromopalmitate, reference compound] was run?
A: Its IC50 is 9 µM.

Q: What about the IC50 ([2]; read-out: IC50 ZDHHC7 (Acyl-cLIP) without the pre-incubation, without pre-incubation) of the same molecule?
A: The IC50 was 12 µM.

Q: What about the IC50 [3, 11] of the same molecule?
A: The IC50 was > 250 µM.

Q: And the “inhibition of ZDHHC3 compared with ZDHHC7 (Acyl-cLIP)” value [3]?
A: Its value is “inhibited ZDHHC3 much less than ZDHHC7”.

Q: What about the IC50 [4] of the same molecule?
A: The IC50 was 16 µM.

Q: And the “time-dependent inhibition of STAT3 acylation (ZDHHC7)” value ([5]; 25 μM inhibitor, HEK293T)?
A: The value was “slightly more inhibitory effect than MY-D-4”.

Q: And the “STAT3 fatty acylation (ZDHHC7)” value ([5]; HEK293T)?
A: Its value is “abolished”.

Q: And the “STAT3 acylation (ZDHHC7)” value ([5]; HEK293T)?
A: Its value is “completely eliminated”.

Q: Which Km [8] does the source give for `CC[C@H](C)[C@H](NC(=O)c1ccc2c(c1)C(=O)OC21c2ccc(O)cc2Oc2cc(O)ccc21)C(=O)N[C@@H](CO)C(=O)N[C@@H](CCCCN)C(=O)N[C@@H](CCC(=O)O)C(=O)N[C@@H](CCC(=O)O)C(=O)N[C@@H](CCCCN)C(=O)N[C@H](C(=O)N1CCC[C@H]1C(=O)NCC(=O)N[C@@H](CS)C(=O)N[C@H](C(=O)N[C@@H](CCCCN)C(=O)N[C@H](C(=O)N[C@@H](CCCCN)C(=O)N[C@@H](CCCCN)C(=O)O)[C@@H](C)CC)C(C)C)[C@@H](C)O` [FAM-KRas4a peptide] (5FAM-ISKEEKTPGCVKIKK-OH) here?
A: Its Km is 184 µM.

Q: With `CCCCCCCCCCCCCCC(Br)C(=O)Nc1ccccc1` [MY-D-3, 2-bromo-N-phenylhexadecanamide] as the molecule, how does the “effect on ZDHHC3-catalyzed STAT3 acylation level” value [1] read?
A: Its value is “did not alter”.

Q: What about the IC50 [2, 9] of the same molecule?
A: The IC50 was > 150 µM.

Q: What about the “inhibition of ZDHHC7 (Acyl-cLIP) at highest concentration” value ([2]; at 150 μM) of the same molecule?
A: The value was “no inhibition”.

Q: What about the “IC50 (μM) ZDHHC3 (Acyl-cLIP)” value [3, 11] of the same molecule?
A: The value was “No”.

Q: And the IC50 [4]?
A: Its IC50 is 78 µM.

Q: What about the “STAT3 fatty acylation (ZDHHC7)” value ([5]; HEK293T) of the same molecule?
A: Its value is “had no effect”.

Q: What about the “in-cell inhibition of ZDHHC7 (overall)” value [5] of the same molecule?
A: The value was “no inhibition”.

From US12416036B2, “High-throughput enzyme assay for screening activity of acyltransferases” (CORNELL UNIVERSITY, priority 2021, dated 2025)
